The source of these data is ChEMBL document CHEMBL3870326, “Synthesis and structure activity relationships of glycine amide derivatives as novel Vascular Adhesion Protein-1 inhibitors” (Bioorg Med Chem, 2017).

A value given as a limit tells only on which side of the number the result lay.

The nature of data set [1]: in vitro. The note with it: PAMPA, pH 6.5. A general note: The PAMPA barrier holds no transporters, so it reflects passive diffusion.
The conditions of data set [2]: pampa, pH 6.5, 2 h, 50 µM.
Data set [3] is described as follows: Solubility of the compound. In kind it is physicochemical.
Data set [4] in a line: Stability in Wistar rat blood assessed as parent compound remaining at 1 ug/ml after 1 hr by LC-MS/MS analysis. In kind it is ADME, tissue-based. The note with it: read-out: Stability.
Data set [5] is described as follows: Metabolic stability in liver microsomes (unknown origin). Type of data set: ADME.
Data set [6] in a line: AUC (0 to 24 hrs) in Wistar rat plasma at 1 mg/kg, po by LC-MS/MS analysis. In kind it is ADME, organism-based. Also noted: dose 1 mg/kg, time < 24 hr, route oral.
Data set [7] is described as follows: AUC (0 to 24 hrs) in Wistar rat plasma at 1 mg/kg, iv by LC-MS/MS analysis. Type of data set: ADME, organism-based. The arrangement: time < 24 hr, dose 1 mg/kg, route intravenous.
The nature of data set [8]: Volume of distribution at steady state in Wistar rat plasma at 1 mg/kg, iv by LC-MS/MS analysis. Type of data set: ADME, organism-based. The note with it: read-out: Vdss.
Data set [9] in a line: Oral bioavailability in Wistar rat plasma at 1 mg/kg by LC-MS/MS analysis. Type of data set: ADME, organism-based.
Data set [10] in a line: Half life in Wistar rat plasma at 1 mg/kg, po by LC-MS/MS analysis. In kind it is ADME, organism-based.
Data set [11] in a line: Cmax in Wistar rat plasma at 1 mg/kg, po by LC-MS/MS analysis. Also noted: dose 1 mg/kg, route oral. In kind it is ADME, organism-based.
A short description of data set [12]: Total clearance in Wistar rat plasma at 1 mg/kg, iv by LC-MS/MS analysis. Type of data set: ADME, organism-based.
The nature of data set [13]: Half life in Wistar rat plasma at 1 mg/kg, iv by LC-MS/MS analysis. In kind it is ADME, organism-based.

As to `CCNC(=O)c1ccc(-c2cccc(CN(C)C(=O)CN)c2)cc1.Cl`, the Papp at 2 h, 50 µM in data set [1] is under 0.2 ×10⁻⁶ cm/s.

On to `Cl.NCC(=O)NCc1cccc(-c2ccccc2)c1`, for which, in data set [2], the Peff entry is reported as “Permeable”. Further, the solubility result in data set [3] is “Soluble”. Also, the remaining at 1 h, 1 ug/ml in [4] turned out to be 33%. Also, the Stability entry in data set [5] is “Stable”.

For `CCN(CC)C(=O)c1ccc(-c2cccc(CN(C)C(=O)CN)c2)cc1.O=C(O)C(=O)O`, the Papp at 2 h, 50 µM in [1] was determined as 3.8 ×10⁻⁶ cm/s.

With `CN(Cc1cccc(-c2ccc(N3CCOCC3)cc2)c1)C(=O)CN.O=C(O)C(=O)O`, the AUC(0-t) at 24 h was determined as 69.6 ng·h/mL in [6] and 127 ng·h/mL in data set [7]. The same molecule showed a Papp at 2 h, 50 µM in data set [1] of 22.1 ×10⁻⁶ cm/s. Further, the Vd in data set [8] was found to be 6.06 L/kg. In data set [9], this molecule showed a bioavailability of 54.9%. Further, the half-life is 34.8 min in data set [10] and 28.2 min in data set [13]. In data set [11], this molecule yielded a Cmax of 73.4 ng/mL. In addition, in data set [12], the clearance was determined as 134 mL/min/kg.

Broadly, the Papp is a coefficient for how fast a substance crosses the barrier. A low value points to slow passage. Usually AUC(0-t) stands for exposure summed from dosing to a finite time, without extrapolation to infinity. Higher therefore signals high exposure. One may read the bioavailability as dose-corrected exposure relative to a reference, in per cent. A low value points to poor availability. What is called half-life is how long it takes for the measured level to halve. Read a low half-life as fast loss. As usually defined, the Cmax is the maximum level reached in the sampled fluid or tissue. Broadly, the clearance is the rate of elimination divided by the concentration. A higher clearance goes with a high capacity for elimination.
